Assay [1] deals with 1-octen-3-ol receptors OR2W1, Olfr93, Olfr120, Olfr398. The assay is described as follows: Antagonists of 1-octen-3-ol receptors (Example 11). The assay is classed as cell-based, mouse and human. The settings on record: Table 19. Further details: Inhibition(%): concentration or dose not given beside the values.
Assay [2] has as its system geonol receptors Olfr339, Olfr1487, Olfr1A1, OR11A1, Olfr96. The assay is described as follows: Antagonists of geonol receptors (Example 11). The assay is classed as cell-based, mouse and human. Further details: Inhibition(%): concentration or dose not given beside the values. The settings on record: Table 18.
Assay [3] concerns the target T1, OR51E1 olfactory receptor (Homo sapiens, UniProt Q8TCB6).
T1 construct: expressed in transfected cells
T1 sequence (Q8TCB6 1-318): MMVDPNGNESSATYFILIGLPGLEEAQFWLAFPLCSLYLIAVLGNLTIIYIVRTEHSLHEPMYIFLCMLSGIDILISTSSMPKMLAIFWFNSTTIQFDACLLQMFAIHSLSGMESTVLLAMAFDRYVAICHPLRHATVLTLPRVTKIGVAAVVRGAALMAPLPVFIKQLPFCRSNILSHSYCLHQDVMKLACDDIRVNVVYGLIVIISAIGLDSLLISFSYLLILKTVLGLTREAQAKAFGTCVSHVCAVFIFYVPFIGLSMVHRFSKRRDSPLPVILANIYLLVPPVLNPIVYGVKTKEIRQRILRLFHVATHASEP
The assay is described as follows: Butyric acid olfactory receptor antagonist cell-based dose-response vs butyric acid EC80. The settings on record: butyric acid at EC80; Table 5.

pIC50: −log10 of the molar value. Values joined by “and” are separate entries in the source; they are usually repeats but may differ in a detail not shown here. Equal entries are not always repeated.

What is called pIC50 is −log10 of the IC50, conventionally taken in molar units.

On to `CC(=O)/C=C/C1C(C)=CCCC1(C)C` (racemic) [(+−)-(3E)-4-(2,6,6-trimethyl-2-cyclohexen-1-yl)-3-buten-2-one], for which, in assay [1], the negative logarithm of the IC50 (pIC50) is 3.34 and the “Inhibition(%)” value is 79%.
On to `CC(C)=CCCC(C)=CCO` [3,7-dimethylocta-2,6-dien-1-ol], for which, in assay [1], the pIC50 was 3.72 and the “Inhibition(%)” value was 18%.
The corresponding values for `Cc1cc2c(cc1C=O)C(C)(C)[C@H](C)[C@@H](C)C2(C)C` are 4.08 and 64%.
On the same counts, the results for `CC(=O)OC1(C)CCC23CC1C(C)(C)C2CCC3C` (centres unmarked) are 4.14 and 52%.
With `C=C(C[C@H](C)CO)[C@H]1CC=C(C)C1(C)C`, in assay [2], the pIC50 is 4.44 and the “Inhibition(%)” value is 33%. Besides, in assay [1], the pIC50 was 4.26 and the “Inhibition(%)” value was 27%.
With `CC=CC(=O)C1=C(C)CCCC1(C)C` [1-(2,6,6-trimethylcyclohexen-1-yl)but-2-en-1-one], in assay [1], the pIC50 was 3.32 and the “Inhibition(%)” value was 72%.
With `CC1=CCC2C(C1)C1CC2C2(C1)OC2C` (centres unmarked), in assay [2], the pIC50 was 3.55 and the “Inhibition(%)” value was found to be 45%.
As for `CC(=O)C=CC1=C(C)CCC(C)C1(C)C` (centres unmarked) [4-(2,5,6,6-tetramethylcyclohexen-1-yl)but-3-en-2-one], in assay [1], the pIC50 is 4.14 and the “Inhibition(%)” value was 23%.
Regarding `CCC(=CCC1CC=C(C)C1(C)C)CO` (centres unmarked) [2-ethyl-4-[1~{S})-2,2,3-trimethylcyclopent-3-en-1-yl]but-2-e], in assay [2], the negative-log IC50 (pIC50) was 4.35 and the “Inhibition(%)” value was 19%.
On the same counts, the results for `CC1=CCC(C=CC(C)C(C)O)C1(C)C` (centres unmarked) are 4.12 and 33%.
With `C[C@@H]1CC=CCCCCCCCCCC(=O)C1` [(3~{R})-3-methylcyclopentadec-5-en-1-one], the pIC50 in assay [3] was 4.27; in assay [1] it was 4.63. In assay [1], the “Inhibition(%)” value was determined as 79%.
Turning to `O=C1CCCCCCCCCCCC(=O)OCCO1` [1,4-dioxacycloheptadecane-5,17-dione], in assay [2], the pIC50 was 4.50 and the “Inhibition(%)” value stood at 21%. For the same compound, in assay [1], the pIC50 was 4.41 and the “Inhibition(%)” value was found to be 38%.
On to `CC(CCCC(C)(C)O)CC(O)n1ccc2ccccc21` (centres unmarked) [1-indol-1-yl-3,7-dimethyloctane-1,7-diol], for which, in assay [2], the pIC50 was 3.70 and the “Inhibition(%)” value is given as 46%. Moreover, in assay [1], the pIC50 was 3.76 and the “Inhibition(%)” value was 46%.
Regarding `CC1CCC2(O1)C(C)(C)CCCC2(C)O` (centres unmarked), in assay [2], the negative-log IC50 (pIC50) is 3.76 and the “Inhibition(%)” value is 40%.
For the compound `CCC(=CCC1CC=C(C)C1(C)C)CO` (centres unmarked) [2-ethyl-4-(2,2,3-trimethylcyclopent-3-en-1-yl)but-2-en-1-ol], in assay [2], the pIC50 is 3.76 and the “Inhibition(%)” value was determined as 35%.
In the case of `c1ccc(CCCc2ccccn2)cc1` [2-(3-phenylpropyl)pyridine], in assay [2], the negative-log IC50 (pIC50) was 4.39 and the “Inhibition(%)” value is listed as 196%. In assay [1], the negative-log IC50 (pIC50) is 3.82 and the “Inhibition(%)” value was determined as 31%.
As for `CCC1=CCCC(C)(C)[C@@]12C=C[C@@H](C)O2`, in assay [2], the negative logarithm of the IC50 (pIC50) is 3.90 and the “Inhibition(%)” value is 47%.
In the case of `CC(=O)c1c(C)c([N+](=O)[O-])c(C(C)(C)C)c([N+](=O)[O-])c1C`, in assay [1], the negative logarithm of the IC50 (pIC50) is 4.07 and the “Inhibition(%)” value is listed as 98%.
Consider `CC(C)COC(=O)Cc1ccccc1` [2-methylpropyl 2-phenylacetate], for which, in assay [2], the negative logarithm of the IC50 (pIC50) is 3.85 and the “Inhibition(%)” value is recorded as 45%.
Consider `CC(=O)OC1CCC(C(C)(C)C)CC1` (centres unmarked) [(4-{tert}-butylcyclohexyl) acetate], for which, in assay [1], the negative-log IC50 (pIC50) is 4.03 and the “Inhibition(%)” value was found to be 79%.
On to `CCCCC[C@H]1CCC[C@H]1O` [(1~{R},2~{S})-2-pentylcyclopentan-1-ol], for which the negative-log IC50 (pIC50) in assay [2] was 3.71 and 3.83.
In the case of `CC(=O)C(C)=CC1C(C)=CCCC1(C)C` (centres unmarked) [3-methyl-4-(2,6,6-trimethylcyclohex-2-en-1-yl)but-3-en-2-one], the pIC50 in assay [2] was 3.96; in assay [1], 3.92. Moreover, the “Inhibition(%)” value in assay [2] is recorded as 58%; in assay [1], 37%.
On the same counts, the results for `CC1(C)CCCC2(C)C1CCC1(C)OCCC12` (centres unmarked) are 4.57, 3.99, 78% and 105%.
In the case of `CC(C)(C)Cc1cccnc1` [3-(2,2-dimethylpropyl)pyridine], in assay [1], the negative-log IC50 (pIC50) is 3.93 and the “Inhibition(%)” value came to 25%.
In the case of `CC1COCc2cc3c(cc21)C(C)(C)C(C)C3(C)C` (centres unmarked), in assay [2], the pIC50 is 3.05 and the “Inhibition(%)” value is recorded as 56%. Also, in assay [1], the pIC50 is 4.19 and the “Inhibition(%)” value is 84%.
On to `CCCCCCCC=CC=O` [dec-2-enal], for which, in assay [2], the negative logarithm of the IC50 (pIC50) is 3.58 and the “Inhibition(%)” value is 40%.
Consider `CC(=O)/C(C)=C/C1C(C)=CCCC1(C)C` (centres unmarked), for which, in assay [2], the negative logarithm of the IC50 (pIC50) was 2.95 and the “Inhibition(%)” value came to 58%.
Take `C=CC(C)(CCC=C(C)C)OC(=O)C(C)C` (centres unmarked) [3,7-dimethylocta-1,6-dien-3-yl 2-methylpropanoate]: in assay [1], the pIC50 was 4.24 and the “Inhibition(%)” value was determined as 88%.
For `COC(=O)c1ccccc1NC=CC(C)CCCC(C)(C)O` (centres unmarked) [methyl 2-[(7-hydroxy-3,7-dimethyloct-1-enyl)amino]benzoate], in assay [2], the pIC50 is 3.67 and the “Inhibition(%)” value is listed as 103%.
The corresponding values for `CC1C2CC(CC2C2CCCC(O)C2)C1(C)C` (centres unmarked) [3-(5,5,6-trimethyl-2-bicyclo[2.2.1]heptanyl)cyclohexan-1-ol] are 4.00 and 29%.
For the compound `C=C1C2CCC(C2)C1(C)C` (centres unmarked) [2,2-dimethyl-3-methylidenebicyclo[2.2.1]heptane], in assay [2], the pIC50 is 3.66 and the “Inhibition(%)” value is listed as 36%.
The corresponding values for `CC(C)CCOCCc1ccccc1` [2-(3-methylbutoxy)ethylbenzene] are 3.90 and 22%.
For `CC1CCC2C(C)(C)C3CC12CC1OC13C` (centres unmarked), in assay [1], the negative-log IC50 (pIC50) was 4.07 and the “Inhibition(%)” value is 91%.
Take `CC(C)CC(=O)OCc1ccccc1` [benzyl 3-methylbutanoate]: in assay [2], the pIC50 is 3.66 and the “Inhibition(%)” value amounted to 41%.
The corresponding values for `CC(=O)OC1CC2CCC1(C)C2(C)C` (centres unmarked) are 3.18 and 84%.
The corresponding values for `CC=CC(=O)C1=C(C)C=CCC1(C)C` [1-(2,6,6-trimethylcyclohexa-1,3-dien-1-yl)but-2-en-1-one] are 3.89 and 35%.
With `CC(=O)O[C@@H]1C(C)(C)CCC[C@@]12CC=C(C)C[C@@H]2C`, the results for the negative logarithm of the IC50 (pIC50) in assay [3] and in assay [2] were 4.42 and 3.57, respectively. In assay [2], the “Inhibition(%)” value is recorded as 38%.
For `CCC(O)COC1CCCCC1C(C)(C)C` (centres unmarked), in assay [1], the negative logarithm of the IC50 (pIC50) was 4.27 and the “Inhibition(%)” value stood at 13%.
As for `CCCCCCCC1CCCC(=O)O1` (centres unmarked) [6-heptyloxan-2-one], in assay [2], the negative-log IC50 (pIC50) was 3.71 and the “Inhibition(%)” value was 29%.
Turning to `CCOC(=O)c1ccccc1C(=O)OCC` [diethyl benzene-1,2-dicarboxylate], in assay [2], the negative-log IC50 (pIC50) was 2.80 and the “Inhibition(%)” value was found to be 32%.

For the origin of these results see patent US20230233425A1, “USE OF VOLATILE COMPOSITIONS TO LIMIT OR ELIMINATE THE PERCEPTION OF MALODOR” (Firmenich SA, priority 2017, published 2023).
